Consider 4 compounds from ChEMBL document CHEMBL1201862, “PubChem BioAssay data set” (2004).

The nature of assay [1]: A375 melanoma cell viability loss, dose response, counter-screen for MITF inhibitor project, CellTiter-Glo luminescence, dry powder, set 4 (AID 624364).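 Also: A375 melanoma cells are MITF independent so this is a counter screen.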 Type of assay: functional, cell-based. To be noted: A-375.
The nature of assay [2]: A375 melanoma cell cytotoxicity, dose response, counter-screen for MITF inhibitor project, CellTiter-Glo luminescence, dry powder, set 2 (AID 624489).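 Also: actives are compounds lowering A375 viability meaning general cytotoxicity.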 To be noted: A-375. The class given is functional, cell-based. On the technique in general: Counterscreens check selectivity or assay interference.
For the next assay, the target named is Nonstructural protein 1 (Influenza A virus, UniProt Q194T2). The class given is functional, Influenza A virus (A/California/07/2009(H1N1)).
Assay [3] deals with T1, Histone-lysine N-methyltransferase NSD2 (Homo sapiens, UniProt O96028).
T1 sequence (O96028 whole entry): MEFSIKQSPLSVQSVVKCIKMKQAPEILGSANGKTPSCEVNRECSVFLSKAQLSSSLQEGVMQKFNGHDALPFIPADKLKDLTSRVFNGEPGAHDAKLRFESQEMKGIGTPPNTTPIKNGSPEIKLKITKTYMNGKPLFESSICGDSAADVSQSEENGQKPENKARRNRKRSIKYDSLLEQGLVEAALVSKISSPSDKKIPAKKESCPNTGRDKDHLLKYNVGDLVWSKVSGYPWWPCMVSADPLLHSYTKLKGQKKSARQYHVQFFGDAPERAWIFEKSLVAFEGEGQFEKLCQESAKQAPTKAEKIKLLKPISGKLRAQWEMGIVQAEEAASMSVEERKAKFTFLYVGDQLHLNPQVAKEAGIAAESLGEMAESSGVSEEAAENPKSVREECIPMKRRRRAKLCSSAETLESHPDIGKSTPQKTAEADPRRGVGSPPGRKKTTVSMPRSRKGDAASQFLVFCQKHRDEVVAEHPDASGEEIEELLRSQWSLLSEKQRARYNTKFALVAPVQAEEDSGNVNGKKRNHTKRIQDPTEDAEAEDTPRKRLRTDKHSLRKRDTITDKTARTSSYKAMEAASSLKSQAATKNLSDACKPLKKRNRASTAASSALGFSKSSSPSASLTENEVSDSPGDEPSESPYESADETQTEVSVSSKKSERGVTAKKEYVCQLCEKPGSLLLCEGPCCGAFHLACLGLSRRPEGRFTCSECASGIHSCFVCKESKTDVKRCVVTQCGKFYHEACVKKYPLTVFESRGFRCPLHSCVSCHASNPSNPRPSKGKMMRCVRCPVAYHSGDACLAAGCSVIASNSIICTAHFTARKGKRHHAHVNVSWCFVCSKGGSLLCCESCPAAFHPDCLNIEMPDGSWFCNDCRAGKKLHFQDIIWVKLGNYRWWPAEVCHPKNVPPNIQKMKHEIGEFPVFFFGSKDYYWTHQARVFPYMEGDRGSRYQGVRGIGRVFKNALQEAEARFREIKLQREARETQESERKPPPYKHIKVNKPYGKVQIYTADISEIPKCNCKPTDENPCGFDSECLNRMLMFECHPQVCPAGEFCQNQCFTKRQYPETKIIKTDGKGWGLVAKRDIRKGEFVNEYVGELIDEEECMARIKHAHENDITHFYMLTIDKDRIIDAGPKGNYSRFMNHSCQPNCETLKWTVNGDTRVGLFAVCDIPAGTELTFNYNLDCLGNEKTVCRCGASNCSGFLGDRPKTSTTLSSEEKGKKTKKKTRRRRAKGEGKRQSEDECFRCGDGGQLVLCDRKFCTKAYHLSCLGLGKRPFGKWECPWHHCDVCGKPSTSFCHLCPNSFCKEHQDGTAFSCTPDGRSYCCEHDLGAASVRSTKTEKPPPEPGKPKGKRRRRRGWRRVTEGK
Type of assay: biochemical.

For assay [4], the target named is T2, Carboxy-terminal domain RNA polymerase II polypeptide A small phosphatase 1 (Homo sapiens, UniProt Q9GZU7).
T2 sequence (Q9GZU7 whole entry): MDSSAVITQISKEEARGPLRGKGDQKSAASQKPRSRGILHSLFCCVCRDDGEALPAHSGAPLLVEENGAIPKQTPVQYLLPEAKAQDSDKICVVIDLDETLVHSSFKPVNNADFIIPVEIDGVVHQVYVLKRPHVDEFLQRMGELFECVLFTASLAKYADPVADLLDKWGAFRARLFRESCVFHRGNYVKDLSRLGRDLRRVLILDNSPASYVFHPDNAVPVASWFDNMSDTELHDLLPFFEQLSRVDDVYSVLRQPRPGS
Put plainly: inhibitors of CTDSP1, concentration-response testing, biochemical assay, absorbance-based, actives from ultra-high-throughput screening (AID 540297). The class given is functional.

Another assay concerns the target Phospholipase A2 (Homo sapiens, UniProt P04054). The class given is functional.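 Also: confirmatory dose-response counterscreen on phospholipase A2, testing hits that came from an ultra-high-throughput screen for ATG4B inhibitors.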
Another assay concerns the target T3, Caspase-3 (Homo sapiens, UniProt P42574).
T3 sequence (P42574 whole entry): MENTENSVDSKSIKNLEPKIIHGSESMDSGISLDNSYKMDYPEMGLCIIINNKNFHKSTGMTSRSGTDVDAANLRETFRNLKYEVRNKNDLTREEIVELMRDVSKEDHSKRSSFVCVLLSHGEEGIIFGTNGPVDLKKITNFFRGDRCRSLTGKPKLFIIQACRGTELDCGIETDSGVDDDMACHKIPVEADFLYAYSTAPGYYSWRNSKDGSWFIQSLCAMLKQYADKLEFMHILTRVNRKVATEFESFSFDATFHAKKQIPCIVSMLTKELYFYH
Put plainly: caspase-3 enzyme inhibitors, selectivity check, dose response, selectivity assay for caspase-6 allosteric inhibitor project, biochemical, fluorescence, cherry-picked samples (AID 743291).

Another assay concerns the target Caspase-8 (Homo sapiens, UniProt Q14790). The assay is described as follows: caspase-8 inhibition counter-screen, dose response, selectivity assay for caspase-6 inhibitor project, biochemical, Z-IETD-R110 fluorescence, cherry-picked samples (AID 743294).
In another assay the target is T4, Caspase-7 (Homo sapiens, UniProt P55210).
T4 sequence (P55210 whole entry): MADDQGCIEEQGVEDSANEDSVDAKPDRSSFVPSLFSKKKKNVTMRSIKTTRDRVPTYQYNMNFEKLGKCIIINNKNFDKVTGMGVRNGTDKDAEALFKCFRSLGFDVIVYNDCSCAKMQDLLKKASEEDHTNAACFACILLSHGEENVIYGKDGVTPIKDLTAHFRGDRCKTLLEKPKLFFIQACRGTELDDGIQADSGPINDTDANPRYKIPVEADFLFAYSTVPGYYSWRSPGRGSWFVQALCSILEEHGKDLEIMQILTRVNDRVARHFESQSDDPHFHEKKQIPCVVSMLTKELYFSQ
The assay is described as follows: human caspase-7 inhibitors, dose response, selectivity assay for caspase-6 inhibitor project, biochemical, DEVD-R110 fluorescence, cherry-pick (AID 743295). Type of assay: […].

The target in another assay is T5, Cysteine protease ATG4B (Homo sapiens, UniProt Q9Y4P1).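 Also: Fluorescence-based dose-response confirmation assay measuring inhibition of ATG4B activity.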
T5 sequence (Q9Y4P1 whole entry): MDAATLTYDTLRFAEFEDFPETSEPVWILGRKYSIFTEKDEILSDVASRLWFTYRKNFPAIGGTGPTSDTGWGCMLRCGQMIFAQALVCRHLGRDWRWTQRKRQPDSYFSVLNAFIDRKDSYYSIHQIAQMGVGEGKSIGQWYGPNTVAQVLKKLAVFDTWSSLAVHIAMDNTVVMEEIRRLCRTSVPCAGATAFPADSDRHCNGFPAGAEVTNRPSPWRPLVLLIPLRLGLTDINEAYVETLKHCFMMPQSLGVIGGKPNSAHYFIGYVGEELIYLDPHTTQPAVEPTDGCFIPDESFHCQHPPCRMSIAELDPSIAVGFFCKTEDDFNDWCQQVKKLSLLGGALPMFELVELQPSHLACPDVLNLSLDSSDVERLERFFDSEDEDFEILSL
Type of assay: functional.

In the next assay the target is T6, Caspase-6 (Homo sapiens, UniProt P55212).
T6 sequence (P55212 whole entry): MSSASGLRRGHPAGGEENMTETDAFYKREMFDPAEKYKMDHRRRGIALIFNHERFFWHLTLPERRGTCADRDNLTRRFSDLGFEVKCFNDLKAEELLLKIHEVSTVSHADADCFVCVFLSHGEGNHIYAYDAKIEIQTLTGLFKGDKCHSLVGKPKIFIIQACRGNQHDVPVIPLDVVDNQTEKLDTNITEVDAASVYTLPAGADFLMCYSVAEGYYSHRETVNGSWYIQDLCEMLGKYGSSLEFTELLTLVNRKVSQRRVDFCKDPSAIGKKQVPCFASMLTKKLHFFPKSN
The assay is described as follows: human caspase-6 inhibitors, dose response, biochemical, VEID-R110 fluorescence, cherry-pick (AID 720632).

Assay [5] can be described thus: HEK293 Cytotoxicity Assay Measured in Cell-Based System Using Plate Reader - 7071-01_Inhibitor_Dose_CherryPick_Activity_Set2. The class given is functional.
The subject of the next assay is HEK293. Put plainly: HEK293T cell cytotoxicity, dose response, cytotoxicity control, ATP luminescence, cherry-pick samples (AID 687005).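 Also: cells exposed to compound for 48 hours.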 Particulars: Homo sapiens. The class given is functional, cell-based.
The nature of assay [6]: MITF: Counter assay: A375 proliferation Measured in Cell-Based System Using Plate Reader - 2084-03_Inhibitor_Dose_DryPowder_Activity_Set8. Particulars: A-375. Type of assay: functional.
Assay [7] in a line: MITF Orthogonal Assay: SK-MEL-5 CTG Assay Measured in Cell-Based System Using Plate Reader - 2084-02_Inhibitor_Dose_DryPowder_Activity_Set7. Type of assay: functional.
A short description of assay [8]: TRPM1 promoter luciferase reporter signal decrease, dose response, MITF inhibitor project, cell-based, SK-MEL-5, dry powder, set 8 (AID 624430). Type of assay: functional.

SMILES strings stand for the structures. Active and inactive are the calls of the source.

Sequence of Nonstructural protein 1 (Q194T2 whole entry): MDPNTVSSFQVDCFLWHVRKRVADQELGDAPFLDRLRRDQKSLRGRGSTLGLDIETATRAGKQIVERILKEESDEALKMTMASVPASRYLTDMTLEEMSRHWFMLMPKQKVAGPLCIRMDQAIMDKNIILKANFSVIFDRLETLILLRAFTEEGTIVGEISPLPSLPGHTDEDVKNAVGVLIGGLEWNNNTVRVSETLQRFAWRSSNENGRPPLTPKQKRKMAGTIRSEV
Sequence of Phospholipase A2 (P04054 whole entry): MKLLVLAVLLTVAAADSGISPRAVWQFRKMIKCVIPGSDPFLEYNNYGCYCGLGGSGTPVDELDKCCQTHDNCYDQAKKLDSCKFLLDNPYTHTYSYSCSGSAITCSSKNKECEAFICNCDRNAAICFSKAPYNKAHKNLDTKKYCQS
Sequence of Caspase-8 (Q14790 217-374 limits assumed): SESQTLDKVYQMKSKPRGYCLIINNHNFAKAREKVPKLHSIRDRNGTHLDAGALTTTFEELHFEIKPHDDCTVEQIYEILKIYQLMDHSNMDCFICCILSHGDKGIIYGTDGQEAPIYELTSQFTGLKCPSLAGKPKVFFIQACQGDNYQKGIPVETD
Sequence of Caspase-8 (Q14790 385-479 limits assumed): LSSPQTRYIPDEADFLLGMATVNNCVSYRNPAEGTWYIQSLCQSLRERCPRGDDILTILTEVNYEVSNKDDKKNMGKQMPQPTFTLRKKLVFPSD

Broadly, the AC50 is the concentration giving half of the maximal activity seen. As a reminder, the IC50 is the concentration at which inhibition is half-maximal. With `O=C1C(NS(=O)(=O)c2ccc(Br)cc2)=C(N2CCCCC2)C(=O)c2ccccc21`, the AC50 in [1] was > 70 µM (inactive); in assay [2], > 70 µM (inactive); in [3], 6.22 µM (active). The IC50 at Nonstructural protein 1 was 14.5 µM (active).

On to `O=c1oc(-c2ccccc2)nc2sc3c(c12)CCC3`, for which the concentration for half-maximal inhibition (IC50) in assay [4] was 9.39 µM (active); on Phospholipase A2, 1.95 µM (active); at Cysteine protease ATG4B it was 5.65 µM (active). For the same compound, the AC50 on Caspase-3 is 38.7 µM (active); on Caspase-8, 43.9 µM (active); at Caspase-7 it was > 70 µM (inactive); at Caspase-6, 0.44 µM (active).

With `C[C@@H]1CN([C@H](C)CO)C(=O)c2cccc(NC(=O)c3ccncc3)c2O[C@H]1CN(C)C(=O)Nc1ccc(C(F)(F)F)cc1`, the AC50 (in assay [5]; with HEK293) was 27.7 µM (active) throughout.

Take `CC(C)N1CCN(C2=C(Nc3ccc(Cl)cc3)C(=O)c3ccccc3C2=O)CC1`: the AC50 is 54.7 µM (active) in assay [6], 10.5 µM (active) in assay [7] and 2 µM (active) in [8].
